From US20200315231A1, “CO-C[…]” (NESTES S,A,, priority 2016, published 2020)

Assay: Water uptake behavior study in powder matrices at 33% Relative Humidity
Type: physicochemical
Conditions: all samples tested (maltodextrin, skimmed milk powder, full cream milk powder, growing up milk powder), co-crystal 7.6% by weight, 22 days, versus equivalent dry-mix CaCl2.2 H2O+sucrose
Experimental: The water uptake behavior was studied for the co-crystal of Sucrose.CaCl2.4 H2O in four different powder matrices: Maltodextrin (FIG. 5), skimmed milk powder (FIG. 6), full cream milk powder with 26% fat (FIG. 7), and powdered “growing up milk” (Nestlé BEBA3) (FIG. 8). For each matrix, three different calcium containing material were mixed into the powder to simulate calcium fortification. Powders were stored in a desiccator at 33% Relative Humidity over 22 days. The water uptake was measured every 3-4 days by tracking the weight change. The water uptake is shown in FIGS. 5 to 8): powder matrix alone (♦), powder matrix with CaCl2. 2 H2O (2.1% by weight): 13.59 g of matrix+290 mg of CaCl2.2 H2O (●), powder matrix with co-crystalline Sucrose.CaCl2.4 H2O (7.6% by weight): 13.59 g of matrix+1.04 g of co-crystal (▴), and powder matrix with the equivalent dry-mix: 13.59 g of matrix+290 mg of CaCl2.2 H2O+670 mg of sucrose (▪).

O.O.O.O.OC[C@H]1O[C@@](CO)(O[C@H]2O[C@H](CO)[C@@H](O)[C@H](O)[C@H]2O)[C@@H](O)[C@@H]1O.[Ca+2].[Cl-].[Cl-] [co-crystal, Sucrose.CaCl2.4 H2O]
water uptake (weight change) compared with the dry mix: lower for the co-crystal than for the dry mix
